Data published in patent US7968606B2 (Takasago International Corporation, priority 2004, dated 2011).

Test system: Japanese women
Assay: Contingent negative variation (CNV) amplitude measurement, method of Torii
Type: in vivo, human
Conditions: used in perfume compositions in an amount of less than 0.5% by weight, preferably 0.01% to 0.4% by weight
Description: (CNV) according to the method of Torii [Proceedings of the 19th Japanese Symposium on Taste and Smell, 65 (1985)], which is also described in detail in U.S. Pat. No. 6,268,333.
The contingent negative variations are small variations in cerebral potential related to psychological processes, such as attention, waiting, anticipation etc. as well as being related to changes in the state of consciousness.
According to this method, a luminous signal is emitted approximately 2 seconds after the audible signal, and the subject must switch off the luminous signal by pressing on the button as soon as the luminous signal is recognised.
When carrying out these experiments, a sample to be tested (perfume composition) or a reference sample (with no smell) is placed around 10 centimeters from the nose of the subject taking part in these experiments in such a way as to ensure that the compound is recognised at all times via the said subject's respiration. […]
The contingent negative variations measured during an early period of time going from 400 msec to 1000 msec after the audible signal and the amplitude of these variations is expressed with respect to a reference sample to which a value of 100% is given. […]
The amplitude of the contingent negative variations was determined for each woman taking part in the test during the early period going from 400 msec to 1000 msec after the audible signal.

With COc1cc(OC)cc(OC)c1 [1,3,5-trimethoxybenzene] the “sedative effect by measurement of contingent negative variations” value was “sedative effect”.
